This is an account of results in ChEMBL document CHEMBL3867479, “Multiple biological activities and molecular docking studies of newly synthesized 3-(pyridin-4-yl)-1H-pyrazole-5-carboxamide chalcone hybrids” (Bioorg Med Chem Lett, 2016).

For one test, the system named is Klebsiella pneumoniae. Briefly: Antibacterial activity against Klebsiella pneumoniae ATCC 10031 after 24 hrs by well diffusion method. The class given is functional. A general note: A growth-free zone around the sample is the usual read-out of agar diffusion tests.
A further test concerns Pseudomonas aeruginosa. The test can be described thus: Antibacterial activity against Pseudomonas aeruginosa ATCC 10145 after 24 hrs by well diffusion method. The class given is functional.
The test system of the next test is Streptococcus pyogenes. The test can be described thus: Antibacterial activity against Streptococcus pyogenes ATCC 12358 after 24 hrs by well diffusion method. The class given is functional.
Another test has as its system Staphylococcus aureus. The test can be described thus: Antibacterial activity against Staphylococcus aureus ATCC 11632 after 24 hrs by well diffusion method. The class given is functional.
Test [1] in a line: Antioxidant activity assessed as DPPH free radical scavenging activity at 100 uM by UV-Vis spectrophotometric analysis. The class given is functional.
Test [2] is described as follows: Antioxidant activity assessed as H2O2 free radical scavenging activity at 100 uM by UV-Vis spectrophotometric analysis. The class given is functional.
A further test concerns Erythrocyte. Briefly: Antiinflammatory activity in human RBC at 10 to 500 uM by membrane stabilization method. The class given is functional, cell-based.
A short description of test [3]: Antioxidant activity assessed as anti-inflammatory activity by measuring decrease in bovine serum albumin denaturation at 10 to 500 uM. The class given is functional.

Calls of active or inactive are those of the source. The calls are words filed in the database; no cut-off is given here.

For the molecule `O=C(/C=C/c1ccccc1)c1ccccc1` [CHALCONE], the “inhibition zone (IZ)” value was found to be 5 mm in the test with Klebsiella pneumoniae, 7 mm in the test on Pseudomonas aeruginosa, 6.5 mm in the test with Streptococcus pyogenes and 6 mm in the test on Staphylococcus aureus. In addition, the IC50 in test [1] came out at 70.9 µM; in test [2], 98.1 µM. The result in the test on Erythrocyte was Active.
As to `COc1ccccc1/C=C/C(=O)c1cccc(NC(=O)c2cc(-c3ccncc3)n[nH]2)c1`, the “inhibition zone (IZ)” value with Pseudomonas aeruginosa worked out at 8.8 mm; in the test on Streptococcus pyogenes it was 9.7 mm; in the test on Staphylococcus aureus, 6.8 mm. In addition, the IC50 in test [1] came to 41.7 µM; in test [2] it was 56.7 µM. Further, the outcome in the test with Erythrocyte was Active.
For the molecule `O=C(/C=C/c1ccc(Cl)cc1Cl)c1cccc(NC(=O)c2cc(-c3ccncc3)n[nH]2)c1`, the “inhibition zone (IZ)” value in the test on Klebsiella pneumoniae is given as 6.8 mm; in the test with Pseudomonas aeruginosa it was 12.2 mm; in the test on Streptococcus pyogenes, 15.5 mm; in the test with Staphylococcus aureus it was 17.5 mm. Also, the results for the IC50 in test [1] and in test [2] were 35 µM and 80.9 µM, respectively. The result (in the test with Erythrocyte; in test [3]) was Active.
For the molecule `COc1ccc(/C=C/C(=O)c2cccc(NC(=O)c3cc(-c4ccncc4)n[nH]3)c2)cc1`, the “inhibition zone (IZ)” value stood at 5.2 mm in the test with Klebsiella pneumoniae, 12.5 mm in the test with Pseudomonas aeruginosa, 10.6 mm in the test on Streptococcus pyogenes and 4.5 mm with Staphylococcus aureus. Moreover, the IC50 in test [1] stood at 38.4 µM; in test [2] it was 54.6 µM. For the same molecule, the result in the test with Erythrocyte was Active.
In the case of `O=C(/C=C/c1cccc2ccccc12)c1cccc(NC(=O)c2cc(-c3ccncc3)n[nH]2)c1`, the “inhibition zone (IZ)” value is reported as 6.3 mm in the test on Pseudomonas aeruginosa, 15.4 mm with Streptococcus pyogenes and 12.3 mm with Staphylococcus aureus. Also, the IC50 in test [1] turned out to be 64.5 µM; in test [2], 72.1 µM. Moreover, the outcome (in the test on Erythrocyte; in test [3]) was Active.
For the molecule `COc1cc(/C=C/C(=O)c2cccc(NC(=O)c3cc(-c4ccncc4)n[nH]3)c2)cc(OC)c1OC`, the “inhibition zone (IZ)” value is 5.2 mm in the test on Pseudomonas aeruginosa, 11.6 mm in the test with Streptococcus pyogenes and 12.6 mm with Staphylococcus aureus. In addition, the IC50 is 54.5 µM in test [1] and 52.9 µM in test [2]. Also, the outcome (with Erythrocyte; in test [3]) was Active.
As to `O=C(/C=C/c1cccs1)c1cccc(NC(=O)c2cc(-c3ccncc3)n[nH]2)c1`, the “inhibition zone (IZ)” value with Klebsiella pneumoniae came to 7.5 mm; with Pseudomonas aeruginosa, 8.6 mm; in the test on Streptococcus pyogenes, 13.5 mm; in the test on Staphylococcus aureus it was 15.4 mm. Besides, the IC50 was found to be 27.6 µM in test [1] and 70 µM in test [2]. The outcome (in the test on Erythrocyte; in test [3]) was Active.
With `CC(C)c1ccc(/C=C/C(=O)c2cccc(NC(=O)c3cc(-c4ccncc4)n[nH]3)c2)cc1`, the “inhibition zone (IZ)” value in the test with Pseudomonas aeruginosa stood at 9.6 mm; with Streptococcus pyogenes it was 9.4 mm; in the test with Staphylococcus aureus it was 6.8 mm. In addition, the IC50 was 52.3 µM in test [1] and 60.2 µM in test [2]. Besides, the outcome (with Erythrocyte; in test [3]) was Active.
As for `O=C(/C=C/c1ccccc1Cl)c1cccc(NC(=O)c2cc(-c3ccncc3)n[nH]2)c1`, the “inhibition zone (IZ)” value with Pseudomonas aeruginosa was found to be 8.3 mm; in the test with Streptococcus pyogenes it was 7.4 mm. Further, the IC50 turned out to be 27.7 µM in test [1] and 79.8 µM in test [2]. Also, the result (in the test with Erythrocyte; in test [3]) was Active.
In the case of `CN(C)c1ccc(/C=C/C(=O)c2cccc(NC(=O)c3cc(-c4ccncc4)n[nH]3)c2)cc1`, the “inhibition zone (IZ)” value is 5.9 mm in the test on Klebsiella pneumoniae, 10.5 mm in the test on Pseudomonas aeruginosa, 12.4 mm in the test on Streptococcus pyogenes and 7.8 mm in the test on Staphylococcus aureus. Moreover, the values for the IC50 in test [1] and in test [2] were 41.9 µM and 60.9 µM, respectively. Besides, the result (in the test on Erythrocyte; in test [3]) was Active.
As for `O=C(/C=C/c1ccccc1)c1cccc(NC(=O)c2cc(-c3ccncc3)n[nH]2)c1`, the “inhibition zone (IZ)” value in the test with Pseudomonas aeruginosa is on record as 9.5 mm; in the test on Streptococcus pyogenes it was 13.2 mm; in the test on Staphylococcus aureus it was 7.5 mm. For the same molecule, the IC50 in test [1] was 67.1 µM; in test [2], 71.5 µM. In addition, in the test with Erythrocyte, the result was Active.
As for `NC(=O)c1cc(-c2ccncc2)n[nH]1`, the “inhibition zone (IZ)” value amounted to 5 mm in the test with Klebsiella pneumoniae, 4 mm in the test with Pseudomonas aeruginosa, 6 mm in the test with Streptococcus pyogenes and 5 mm with Staphylococcus aureus. Besides, the IC50 in test [1] was determined as 82.1 µM; in test [2] it was 89.1 µM. Further, the outcome with Erythrocyte was Active.
Turning to `O=C(/C=C/c1ccc([N+](=O)[O-])cc1)c1cccc(NC(=O)c2cc(-c3ccncc3)n[nH]2)c1`, the “inhibition zone (IZ)” value in the test with Pseudomonas aeruginosa is given as 10.4 mm; in the test with Streptococcus pyogenes it was 19.3 mm; in the test with Staphylococcus aureus it was 20.2 mm. The IC50 in test [1] was found to be 52.8 µM; in test [2], 64.6 µM. The result with Erythrocyte was Active.
As for `O=C(/C=C/c1ccc(F)cc1)c1cccc(NC(=O)c2cc(-c3ccncc3)n[nH]2)c1`, the “inhibition zone (IZ)” value with Pseudomonas aeruginosa was found to be 12.1 mm; with Staphylococcus aureus, 5.4 mm. Besides, the results for the IC50 in test [1] and in test [2] were 56 µM and 58.7 µM, respectively. In the test with Erythrocyte, the outcome was Active.
As to `Cc1ccc(/C=C/C(=O)c2cccc(NC(=O)c3cc(-c4ccncc4)n[nH]3)c2)cc1`, the results for the “inhibition zone (IZ)” value in the test on Pseudomonas aeruginosa, with Streptococcus pyogenes and with Staphylococcus aureus were 7.8 mm, 7.9 mm and 5.9 mm, respectively. The IC50 in test [1] is 69.4 µM; in test [2] it was 64.6 µM. In addition, in the test on Erythrocyte, the outcome was Active.
Consider `O=C(/C=C/c1ccc(Cl)cc1)c1cccc(NC(=O)c2cc(-c3ccncc3)n[nH]2)c1`, for which the entries for the “inhibition zone (IZ)” value in the test with Pseudomonas aeruginosa, in the test with Streptococcus pyogenes and in the test with Staphylococcus aureus were 10.2 mm, 15.3 mm and 12.3 mm, respectively. Further, the results for the IC50 in test [1] and in test [2] were 63.9 µM and 78.9 µM, respectively. Also, the result (in the test on Erythrocyte; in test [3]) was Active.
As for `O=C(/C=C/c1ccco1)c1cccc(NC(=O)c2cc(-c3ccncc3)n[nH]2)c1`, the “inhibition zone (IZ)” value in the test with Klebsiella pneumoniae is 5.8 mm; with Pseudomonas aeruginosa it was 5.7 mm; in the test with Streptococcus pyogenes it was 13.2 mm; in the test with Staphylococcus aureus, 10.7 mm. Moreover, the values for the IC50 in test [1] and in test [2] were 41.8 µM and 72.3 µM, respectively. The result (with Erythrocyte; in test [3]) was Active.

For orientation: IC50 means the concentration at which inhibition is half-maximal.
